Patent publication US20230026259A1, “CA2 COMPOSITIONS AND METHODS FOR TUNABLE REGULATION” (Obsidian Therapeutics, Inc., priority 2019, published 2023)

Key:
Assay type in all cases: cell-based
[1] = system: NIH3T3 cells; assay: Immunoblotting of cell lysates for GFP after ligand treatment; conditions: 24 hours
Method: The protein expression in the presence of ligand was measured by immunoblotting the cell lysates for GFP.
The protein expression in the presence of ligand was measured by immunoblotting cell lysates for GFP.

[2] = system: NIH3T3 cells; assay: Destabilization mutant screening of human CA2 linked to GFP, ligand response by FACS (Valdecoxib, Celecoxib, Acetazolamide)
[3] = system: NIH3T3 cells; assay: as above; remark: listed apart in the source
[4] = NIH3T3, Celecoxib 0 μM, 24 hours
[5] = NIH3T3, Celecoxib 0.03 μM, 24 hours
[6] = NIH3T3, Celecoxib 0.1 μM, 24 hours
[7] = NIH3T3, Celecoxib 0.3 μM, 24 hours
[8] = NIH3T3, Celecoxib 1 μM, 24 hours
[9] = NIH3T3, Celecoxib 3 μM, 24 hours
[10] = NIH3T3, Celecoxib 10 μM, 24 hours
[11] = NIH3T3, Celecoxib 30 μM, 24 hours
[12] = NIH3T3, Valdecoxib 0 μM, 24 hours
[13] = NIH3T3, Valdecoxib 0.03 μM, 24 hours
[14] = NIH3T3, Valdecoxib 0.1 μM, 24 hours
[15] = NIH3T3, Valdecoxib 0.3 μM, 24 hours
[16] = NIH3T3, Valdecoxib 1 μM, 24 hours
[17] = NIH3T3, Valdecoxib 3 μM, 24 hours
[18] = NIH3T3, Valdecoxib 10 μM, 24 hours
[19] = NIH3T3, Valdecoxib 30 μM, 24 hours

CA2 (aa 2-260 of WT, L197P) [LibC000186]
GFP protein expression by immunoblot, Acetazolamide ([1]; NIH3T3 cells, 0.3, 1, 3, 10 or 30 μM Acetazolamide): stabilization of GFP with increasing ligand doses
GFP protein expression by immunoblot, Celecoxib or Valdecoxib ([1]; NIH3T3 cells, 1, 3, 10 or 30 μM Celecoxib or Valdecoxib): stabilization of GFP with increasing ligand doses
Fold change ([2]; NIH3T3, Acetazolamide 0.03 μM vs DMSO): 1.19
Fold change ([2]; NIH3T3, DMSO (reference), Acetazolamide experiment): 1
Median PE ([3]; NIH3T3, 10 μM Celecoxib): 8156
SR (stabilization ratio) ([3]; NIH3T3, 10 μM Celecoxib vs DMSO): 10
Median PE ([3]; NIH3T3, 10 μM Valdecoxib): 6570
SR (stabilization ratio) ([3]; NIH3T3, 10 μM Valdecoxib vs DMSO): 8.05
Median FITC / Median PE ([3]; NIH3T3, Acetazolamide 0.03 μM, 24 hours): 872
Fold change ([3]; NIH3T3, Acetazolamide 0.1 μM vs DMSO): 1.18
Median FITC / Median PE ([3]; NIH3T3, Acetazolamide 0.1 μM, 24 hours): 867
Fold change ([3]; NIH3T3, Acetazolamide 0.3 μM vs DMSO): 1.23
Median FITC / Median PE ([3]; NIH3T3, Acetazolamide 0.3 μM, 24 hours): 903
Fold change ([3]; NIH3T3, Acetazolamide 1 μM vs DMSO): 1.28
Median FITC / Median PE ([3]; NIH3T3, Acetazolamide 1 μM, 24 hours): 936
Fold change ([3]; NIH3T3, Acetazolamide 3 μM vs DMSO): 1.28
Median FITC / Median PE ([3]; NIH3T3, Acetazolamide 3 μM, 24 hours): 943
MFI, comparative analysis ([3]; NIH3T3, Acetazolamide 10 μM): 1189
Fold change ([3]; NIH3T3, Acetazolamide 10 μM vs DMSO): 1.62
Median FITC / Median PE ([3]; NIH3T3, Acetazolamide 10 μM, 24 hours): 1189
MFI, comparative analysis ([3]; NIH3T3, Acetazolamide 30 μM): 1827
Fold change ([3]; NIH3T3, Acetazolamide 30 μM vs DMSO): 2.49
Median FITC / Median PE ([3]; NIH3T3, Acetazolamide 30 μM, 24 hours): 1827
Med (median fluorescence intensity) [3, 4]: 934
SR (stabilization ratio) [3, 4]: 1
Med (median fluorescence intensity) [3, 5]: 1177
SR (stabilization ratio) [3, 5]: 1.26
Med (median fluorescence intensity) [3, 6]: 1290
SR (stabilization ratio) [3, 6]: 1.38
Med (median fluorescence intensity) [3, 7]: 1470
SR (stabilization ratio) [3, 7]: 1.57
Med (median fluorescence intensity) [3, 8]: 2065
SR (stabilization ratio) [3, 8]: 2.21
Med (median fluorescence intensity) [3, 9]: 4171
SR (stabilization ratio) [3, 9]: 4.47
Med (median fluorescence intensity) [3, 10]: 8202
SR (stabilization ratio) [3, 10]: 8.78
Med (median fluorescence intensity) [3, 11]: 10200
SR (stabilization ratio) [3, 11]: 10.92
MFI, comparative analysis, normalized to parental day 1 ([3]; NIH3T3, Celecoxib μM (concentration not given)): 7312.627
MFI, comparative analysis ([3]; NIH3T3, DMSO): 734
Median PE ([3]; NIH3T3, DMSO): 816
SR (stabilization ratio) ([3]; NIH3T3, DMSO (reference)): 1
Median FITC / Median PE ([3]; NIH3T3, DMSO, 24 hours (Acetazolamide experiment)): 734
Med (median fluorescence intensity) [3, 12]: 934
SR (stabilization ratio) [3, 12]: 1
Med (median fluorescence intensity) [3, 13]: 1223
SR (stabilization ratio) [3, 13]: 1.31
Med (median fluorescence intensity) [3, 14]: 1217
SR (stabilization ratio) [3, 14]: 1.3
Med (median fluorescence intensity) [3, 15]: 1363
SR (stabilization ratio) [3, 15]: 1.46
Med (median fluorescence intensity) [3, 16]: 1711
SR (stabilization ratio) [3, 16]: 1.83
Med (median fluorescence intensity) [3, 17]: 3357
SR (stabilization ratio) [3, 17]: 3.59
Med (median fluorescence intensity) [3, 18]: 7890
SR (stabilization ratio) [3, 18]: 8.45
Med (median fluorescence intensity) [3, 19]: 11800
SR (stabilization ratio) [3, 19]: 12.63
MFI, comparative analysis, normalized to parental day 1 ([3]; NIH3T3, Valdecoxib μM (concentration not given)): 7034.458
stabilization with varying doses of Valdecoxib or Celecoxib ([3]; NIH3T3 cells, 24 hours, FACS): dose dependent stabilization
